# In US8921267B2, “Safening 6-(trisubstituted phenyl)-4-amino-2-pyridinecarboxylate herbicide injury on cereal crops” (Dow AgroSciences LLC, priority 2008, dated 2014):
# Experiments:
# [1] = tested on: Russian thistle (Salsola iberica L; SASKR); experiment: Postemergence herbicidal activity, greenhouse, visual injury: Russian thistle; type: in vivo; design: key: visual injury, 0–100%: 0 = no injury, 100 = complete kill
# Method: (§1) Evaluation of Postemergence Herbicidal Safening in Cereal Crops
# (§2) Seeds of the desired test plant species were planted in Sun Gro MetroMix® 306 planting mixture, which typically has a pH of 6.0 to 6.8 and an organic matter content of about 30 percent, in plastic pots with a surface area of 103.2 square centimeters (cm^2). When required to ensure good germination and healthy plants, a fungicide treatment and/or other chemical or physical treatment was applied. The plants were grown for 7-36 days (d) in a greenhouse with an approximate 14-hour (h) photoperiod which was maintained at about 18° C. during the day and 17° C. during the night. Nutrients and water were added on a regular basis and supplemental lighting was provided with overhead metal halide 1000-Watt lamps as necessary. The plants were employed for testing when they reached the second or third true leaf stage.
# (§3) Weighed amounts of esters (methyl) or salts (TEA [triethylammonium], K [potassium]) of 4-amino-3-chloro-6-(4-chloro-2-fluoro-3-methoxyphenyl)pyridine-2-carboxylic acid (Compound 1) were dissolved in a volume of 97:3 volume/volume (v/v) acetone/dimethylsulfoxide (DMSO) to obtain stock solutions. […] The concentrated stock solutions were diluted with an aqueous mixture of 1.5% v/v of Agri-dex crop oil concentrate to provide the appropriate application rates. Compound requirements are based upon a 12 mL application volume at a rate of 187 liters per hectare (L/ha). Stocks solutions of the safeners were prepared following the same procedure. Spray solutions of the safeners and experimental compound mixtures were prepared by adding the stock solutions to the appropriate amount of dilution solution to form a 12 mL spray solution with active ingredients in two-way combinations. Formulated compounds were applied to the plant material with an overhead Mandel track sprayer equipped with 8002E nozzles calibrated to deliver 187 L/ha over an application area of 0.503 square meters (m^2) at a spray height of 18 inches (43 centimeters (cm)) above average plant canopy. Control plants were sprayed in the same manner with the solvent blank.
# (§4) The treated plants and control plants were placed in a greenhouse as described above and watered by sub-irrigation to prevent wash-off of the test compounds. After 20-22 d, the condition of the test plants as compared with that of the control plants was determined visually and scored on a scale of 0 to 100 percent where 0 corresponds to no injury and 100 corresponds to complete kill.
# (§5) Colby's equation was used to determine the herbicidal effects expected from the mixtures (Colby, S. R. Calculation of the synergistic and antagonistic response of herbicide combinations. Weeds 1967, 15, 20-22.).
# (§6) The following equation was used to calculate the expected activity of mixtures containing two active ingredients, A and B: Expected=A+B−(A×B/100)
# (§7) A=observed efficacy of active ingredient A at the same concentration as used in the mixture.
# (§8) B=observed efficacy of active ingredient B at the same concentration as used in the mixture.
# [2] = tested on: cleavers (Galium aparine L; GALAP); experiment: Postemergence herbicidal activity, greenhouse, visual injury: cleavers; type: in vivo; design: key: visual injury, 0–100%: 0 = no injury, 100 = complete kill
# Method: as §1, §2, §3, §4, §5, §6, §7, §8
# [3] = tested on: bird's-eye speedwell (Veronica persica L; VERPE); experiment: Postemergence herbicidal activity, greenhouse, visual injury: bird's-eye speedwell; type: in vivo; design: key: visual injury, 0–100%: 0 = no injury, 100 = complete kill
# Method: as §1, §2, §3, §4, §5, §6, §7, §8
# [4] = tested on: wheat (Triticum aestivum L; TRZAW); experiment: Postemergence herbicidal safening, greenhouse, visual injury: wheat (TRZAW); type: in vivo
# Method: as §1, §2, §3, §4, §5, §6, §7, §8
# barley (HORVW) = experiment: Postemergence herbicidal safening, greenhouse, visual injury: barley (HORVW)
# [5] = tested on: corn poppy (Papaver rhoeas L; PAPRH); experiment: Postemergence herbicidal activity, greenhouse, visual injury: corn poppy; type: in vivo
# Method: as §1, §2, §3, §4, §5, §6, §7, §8
# [6] = tested on: wheat (Triticum aestivum L; TRZAS); experiment: Postemergence herbicidal safening, greenhouse, visual injury: wheat; type: in vivo
# Method: as §1, §2, §3, §4, §5, §6, §7, §8
# [7] = tested on: purple deadnettle (Lamium purpureum L; LAMPU); experiment: Postemergence herbicidal activity, greenhouse, visual injury: purple deadnettle; type: in vivo; design: key: visual injury, 0–100%: 0 = no injury, 100 = complete kill
# Method: as §1, §2, §3, §4, §5, §6, §7, §8
# [8] = tested on: wild pansy (Viola tricolor L; VIOTR); experiment: Postemergence herbicidal activity, greenhouse, visual injury: wild pansy; type: in vivo; design: key: visual injury, 0–100%: 0 = no injury, 100 = complete kill
# Method: as §1, §2, §3, §4, §5, §6, §7, §8
# [9] = tested on: chickweed (Stellaria media L; STEME); experiment: Postemergence herbicidal activity, greenhouse, visual injury: chickweed; type: in vivo; design: key: visual injury, 0–100%: 0 = no injury, 100 = complete kill
# Method: as §1, §2, §3, §4, §5, §6, §7, §8
# [10] = tested on: durum wheat (Triticum durum L; TRZDU); experiment: Postemergence herbicidal safening, greenhouse, visual injury: durum wheat; type: in vivo
# Method: as §1, §2, §3, §4, §5, §6, §7, §8
# [11] = tested on: wild buckwheat (Polygonum convolvulus L; POLCO); experiment: Postemergence herbicidal activity, greenhouse, visual injury: wild buckwheat; type: in vivo
# Method: as §1, §2, §3, §4, §5, §6, §7, §8
# [12] = tested on: barley (Hordeum vulgare L; HORVS); experiment: Postemergence herbicidal safening, greenhouse, visual injury: barley; type: in vivo
# Method: as §1, §2, §3, §4, §5, §6, §7, §8
smiles,measurement,setting,value
"CC1COc2ccccc2N1C(=O)C(Cl)Cl (racemic) [Benoxacor, (±)-4-(dichloroacetyl)-3,4-dihydro-3-methyl-2H-1,4-benzoxazine, reference compound]",SASKR Ob,[1]; applied alone at 17.5 g/ha,0%
same,SASKR Ob,[1]; applied alone at 35 g/ha,0%
same,SASKR Ob,[1]; applied alone at 70 g/ha,0%
same,SASKR Ob,[1]; applied alone at 140 g/ha,0%
same,GALAP Ob,[2]; applied alone at 17.5 g/ha,0%
same,GALAP Ob,[2]; applied alone at 35 g/ha,0%
same,GALAP Ob,[2]; applied alone at 70 g/ha,0%
same,GALAP Ob,[2]; applied alone at 140 g/ha,0%
same,VERPE Ob,[3]; applied alone at 17.5 g/ha,0%
same,VERPE Ob,[3]; applied alone at 35 g/ha,0%
same,VERPE Ob,[3]; applied alone at 70 g/ha,0%
same,VERPE Ob,[3]; applied alone at 140 g/ha,0%
same,TRZAW Ob (Observed values),[4]; safener 4.4 g/ha alone,0%
same,TRZAW Ob (Observed values),[4]; safener 8.8 g/ha alone,0%
same,TRZAW Ob (Observed values),[4]; safener 17.5 g/ha alone,0%
same,TRZAW Ob (Observed values),[4]; safener 35 g/ha alone,0%
same,HORVW Ob (Observed values),barley (HORVW); safener 4.4 g/ha alone,0%
same,HORVW Ob (Observed values),barley (HORVW); safener 8.8 g/ha alone,0%
same,HORVW Ob (Observed values),barley (HORVW); safener 17.5 g/ha alone,0%
same,HORVW Ob (Observed values),barley (HORVW); safener 35 g/ha alone,0%
same,PAPRH Ob,[5]; applied alone at 17.5 g/ha,0%
same,PAPRH Ob,[5]; applied alone at 35 g/ha,0%
same,PAPRH Ob,[5]; applied alone at 70 g/ha,0%
same,PAPRH Ob,[5]; applied alone at 140 g/ha,0%
same,PAPRH Ob (Observed values),[5]; safener 4.4 g/ha alone,0
same,PAPRH Ob (Observed values),[5]; safener 8.8 g/ha alone,0
same,PAPRH Ob (Observed values),[5]; safener 17.5 g/ha alone,0
same,PAPRH Ob (Observed values),[5]; safener 35 g/ha alone,0
same,TRZAS Ob,[6]; applied alone at 17.5 g/ha,0%
same,TRZAS Ob,[6]; applied alone at 35 g/ha,0%
same,TRZAS Ob,[6]; applied alone at 70 g/ha,0%
same,TRZAS Ob,[6]; applied alone at 140 g/ha,0%
same,LAMPU Ob (Observed values),[7]; safener 4.4 g/ha alone,0
same,LAMPU Ob (Observed values),[7]; safener 8.8 g/ha alone,0
same,LAMPU Ob (Observed values),[7]; safener 17.5 g/ha alone,0
same,LAMPU Ob (Observed values),[7]; safener 35 g/ha alone,0
same,VIOTR Ob,[8]; applied alone at 17.5 g/ha,0%
same,VIOTR Ob,[8]; applied alone at 35 g/ha,0%
same,VIOTR Ob,[8]; applied alone at 70 g/ha,0%
same,VIOTR Ob,[8]; applied alone at 140 g/ha,0%
same,STEME Ob,[9]; applied alone at 17.5 g/ha,0%
same,STEME Ob,[9]; applied alone at 35 g/ha,0%
same,STEME Ob,[9]; applied alone at 70 g/ha,0%
same,STEME Ob,[9]; applied alone at 140 g/ha,0%
same,TRZDU Ob (Observed values),[10]; safener 4.4 g/ha alone,0%
same,TRZDU Ob (Observed values),[10]; safener 8.8 g/ha alone,0%
same,TRZDU Ob (Observed values),[10]; safener 17.5 g/ha alone,0%
same,TRZDU Ob (Observed values),[10]; safener 35 g/ha alone,0%
same,POLCO Ob,[11]; applied alone at 17.5 g/ha,0%
same,POLCO Ob,[11]; applied alone at 35 g/ha,0%
same,POLCO Ob,[11]; applied alone at 70 g/ha,0%
same,POLCO Ob,[11]; applied alone at 140 g/ha,0%
same,HORVS Ob,[12]; applied alone at 17.5 g/ha,0%
same,HORVS Ob,[12]; applied alone at 35 g/ha,0%
same,HORVS Ob,[12]; applied alone at 70 g/ha,0%
same,HORVS Ob,[12]; applied alone at 140 g/ha,0%
"NC(=O)NS(=O)(=O)c1ccccc1Cl [Compound 2-CBSU, N-(aminocarbonyl)-2-chlorobenzenesulfonamide, reference compound]",SASKR Ob,[1]; applied alone at 17.5 g/ha,0%
same,SASKR Ob,[1]; applied alone at 35 g/ha,0%
same,SASKR Ob,[1]; applied alone at 70 g/ha,0%
same,SASKR Ob,[1]; applied alone at 140 g/ha,0%
same,GALAP Ob,[2]; applied alone at 17.5 g/ha,0%
same,GALAP Ob,[2]; applied alone at 35 g/ha,0%
same,GALAP Ob,[2]; applied alone at 70 g/ha,0%
same,GALAP Ob,[2]; applied alone at 140 g/ha,0%
same,VERPE Ob,[3]; applied alone at 17.5 g/ha,0%
same,VERPE Ob,[3]; applied alone at 35 g/ha,0%
same,VERPE Ob,[3]; applied alone at 70 g/ha,0%
same,VERPE Ob,[3]; applied alone at 140 g/ha,0%
same,TRZAW Ob (Observed values),[4]; safener 4.4 g/ha alone,0%
same,TRZAW Ob (Observed values),[4]; safener 8.8 g/ha alone,0%
same,TRZAW Ob (Observed values),[4]; safener 17.5 g/ha alone,0%
same,TRZAW Ob (Observed values),[4]; safener 35 g/ha alone,0%
same,HORVW Ob (Observed values),barley (HORVW); safener 4.4 g/ha alone,0%
same,HORVW Ob (Observed values),barley (HORVW); safener 8.8 g/ha alone,0%
same,HORVW Ob (Observed values),barley (HORVW); safener 17.5 g/ha alone,0%
same,HORVW Ob (Observed values),barley (HORVW); safener 35 g/ha alone,0%
same,PAPRH Ob,[5]; applied alone at 17.5 g/ha,0%
same,PAPRH Ob,[5]; applied alone at 35 g/ha,0%
same,PAPRH Ob,[5]; applied alone at 70 g/ha,0%
same,PAPRH Ob,[5]; applied alone at 140 g/ha,0%
same,PAPRH Ob (Observed values),[5]; safener 4.4 g/ha alone,0
same,PAPRH Ob (Observed values),[5]; safener 8.8 g/ha alone,0
same,PAPRH Ob (Observed values),[5]; safener 17.5 g/ha alone,0
same,PAPRH Ob (Observed values),[5]; safener 35 g/ha alone,0
same,TRZAS Ob,[6]; applied alone at 17.5 g/ha,0%
same,TRZAS Ob,[6]; applied alone at 35 g/ha,0%
same,TRZAS Ob,[6]; applied alone at 70 g/ha,0%
same,TRZAS Ob,[6]; applied alone at 140 g/ha,0%
same,LAMPU Ob (Observed values),[7]; safener 4.4 g/ha alone,0
same,LAMPU Ob (Observed values),[7]; safener 8.8 g/ha alone,0
same,LAMPU Ob (Observed values),[7]; safener 17.5 g/ha alone,0
same,LAMPU Ob (Observed values),[7]; safener 35 g/ha alone,0
same,VIOTR Ob,[8]; applied alone at 17.5 g/ha,0%
same,VIOTR Ob,[8]; applied alone at 35 g/ha,0%
same,VIOTR Ob,[8]; applied alone at 70 g/ha,0%
same,VIOTR Ob,[8]; applied alone at 140 g/ha,0%
same,STEME Ob,[9]; applied alone at 17.5 g/ha,0%
same,STEME Ob,[9]; applied alone at 35 g/ha,0%
same,STEME Ob,[9]; applied alone at 70 g/ha,0%
same,STEME Ob,[9]; applied alone at 140 g/ha,0%
same,TRZDU Ob (Observed values),[10]; safener 4.4 g/ha alone,0%
same,TRZDU Ob (Observed values),[10]; safener 8.8 g/ha alone,0%
same,TRZDU Ob (Observed values),[10]; safener 17.5 g/ha alone,0%
same,TRZDU Ob (Observed values),[10]; safener 35 g/ha alone,0%
same,POLCO Ob,[11]; applied alone at 17.5 g/ha,0%
same,POLCO Ob,[11]; applied alone at 35 g/ha,0%
same,POLCO Ob,[11]; applied alone at 70 g/ha,0%
same,POLCO Ob,[11]; applied alone at 140 g/ha,0%
same,HORVS Ob,[12]; applied alone at 17.5 g/ha,0%
same,HORVS Ob,[12]; applied alone at 35 g/ha,0%
same,HORVS Ob,[12]; applied alone at 70 g/ha,0%
same,HORVS Ob,[12]; applied alone at 140 g/ha,0%
